US20250361230A1, “LATS Inhibitors and Uses Thereof” (The USA, as Represented by the Secretary, Dept. of Heath …, priority 2022, published 2025)

Legend:
Format in all cases: biochemical
[1] = target: T1, LATS2 (Homo sapiens, UniProt Q9NRM7); experiment: RBC HotSpot kinase assay (33P-ATP, P81 filter-binding), LATS2; details: biochemical kinase inhibition; read-out: LATS2 IC50
T1 sequence (Q9NRM7 1-1088): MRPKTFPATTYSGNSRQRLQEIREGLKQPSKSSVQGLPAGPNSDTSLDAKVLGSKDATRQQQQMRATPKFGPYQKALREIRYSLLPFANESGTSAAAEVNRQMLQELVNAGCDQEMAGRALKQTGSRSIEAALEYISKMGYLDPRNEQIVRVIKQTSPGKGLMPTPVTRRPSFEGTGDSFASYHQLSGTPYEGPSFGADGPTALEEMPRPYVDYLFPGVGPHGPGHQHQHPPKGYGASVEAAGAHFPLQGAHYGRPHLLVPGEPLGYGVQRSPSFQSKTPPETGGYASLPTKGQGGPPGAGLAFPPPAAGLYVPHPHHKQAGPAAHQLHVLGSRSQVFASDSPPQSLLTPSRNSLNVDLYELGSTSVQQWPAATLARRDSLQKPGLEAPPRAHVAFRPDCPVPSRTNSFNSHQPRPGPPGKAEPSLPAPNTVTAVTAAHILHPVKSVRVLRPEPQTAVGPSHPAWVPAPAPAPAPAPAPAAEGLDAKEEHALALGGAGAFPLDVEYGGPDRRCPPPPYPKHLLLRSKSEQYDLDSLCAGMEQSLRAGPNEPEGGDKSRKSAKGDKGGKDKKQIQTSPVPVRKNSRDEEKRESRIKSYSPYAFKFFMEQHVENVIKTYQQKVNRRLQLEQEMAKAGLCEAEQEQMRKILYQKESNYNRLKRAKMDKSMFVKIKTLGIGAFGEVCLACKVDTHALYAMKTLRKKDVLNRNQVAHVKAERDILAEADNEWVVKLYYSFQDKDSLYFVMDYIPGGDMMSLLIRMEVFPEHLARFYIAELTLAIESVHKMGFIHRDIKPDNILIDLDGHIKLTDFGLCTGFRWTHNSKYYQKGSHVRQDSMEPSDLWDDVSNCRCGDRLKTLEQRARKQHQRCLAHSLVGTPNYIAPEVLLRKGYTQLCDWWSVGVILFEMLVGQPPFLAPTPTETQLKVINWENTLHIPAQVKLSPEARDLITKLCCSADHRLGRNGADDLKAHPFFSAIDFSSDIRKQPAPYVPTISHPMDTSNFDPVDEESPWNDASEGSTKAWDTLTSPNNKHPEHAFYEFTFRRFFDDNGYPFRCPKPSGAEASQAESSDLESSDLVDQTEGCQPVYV
Outline: (§1)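 Hepes pH 7.5/MgCl2/EGTA/Brij35/BSA/Na3VO4/DTT buffer, cofactors per kinase; cpd acoustically dispensed, 20 min preinc RT; start w/ 33P-ATP, 2 h RT; P81 filter readout; 10-pt singlet IC50.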

[2] = target: AKT (Homo sapiens, UniProt P31749); experiment: RBC HotSpot kinase assay (33P-ATP, P81 filter-binding), AKT; details: biochemical kinase inhibition; read-out: AKT IC50
Outline: as §1

[3] = target: T2, LATS1 (Homo sapiens, UniProt O95835); experiment: RBC HotSpot kinase assay (33P-ATP, P81 filter-binding), LATS1; details: biochemical kinase inhibition; read-out: LATS1 IC50
T2 sequence (O95835 1-1130): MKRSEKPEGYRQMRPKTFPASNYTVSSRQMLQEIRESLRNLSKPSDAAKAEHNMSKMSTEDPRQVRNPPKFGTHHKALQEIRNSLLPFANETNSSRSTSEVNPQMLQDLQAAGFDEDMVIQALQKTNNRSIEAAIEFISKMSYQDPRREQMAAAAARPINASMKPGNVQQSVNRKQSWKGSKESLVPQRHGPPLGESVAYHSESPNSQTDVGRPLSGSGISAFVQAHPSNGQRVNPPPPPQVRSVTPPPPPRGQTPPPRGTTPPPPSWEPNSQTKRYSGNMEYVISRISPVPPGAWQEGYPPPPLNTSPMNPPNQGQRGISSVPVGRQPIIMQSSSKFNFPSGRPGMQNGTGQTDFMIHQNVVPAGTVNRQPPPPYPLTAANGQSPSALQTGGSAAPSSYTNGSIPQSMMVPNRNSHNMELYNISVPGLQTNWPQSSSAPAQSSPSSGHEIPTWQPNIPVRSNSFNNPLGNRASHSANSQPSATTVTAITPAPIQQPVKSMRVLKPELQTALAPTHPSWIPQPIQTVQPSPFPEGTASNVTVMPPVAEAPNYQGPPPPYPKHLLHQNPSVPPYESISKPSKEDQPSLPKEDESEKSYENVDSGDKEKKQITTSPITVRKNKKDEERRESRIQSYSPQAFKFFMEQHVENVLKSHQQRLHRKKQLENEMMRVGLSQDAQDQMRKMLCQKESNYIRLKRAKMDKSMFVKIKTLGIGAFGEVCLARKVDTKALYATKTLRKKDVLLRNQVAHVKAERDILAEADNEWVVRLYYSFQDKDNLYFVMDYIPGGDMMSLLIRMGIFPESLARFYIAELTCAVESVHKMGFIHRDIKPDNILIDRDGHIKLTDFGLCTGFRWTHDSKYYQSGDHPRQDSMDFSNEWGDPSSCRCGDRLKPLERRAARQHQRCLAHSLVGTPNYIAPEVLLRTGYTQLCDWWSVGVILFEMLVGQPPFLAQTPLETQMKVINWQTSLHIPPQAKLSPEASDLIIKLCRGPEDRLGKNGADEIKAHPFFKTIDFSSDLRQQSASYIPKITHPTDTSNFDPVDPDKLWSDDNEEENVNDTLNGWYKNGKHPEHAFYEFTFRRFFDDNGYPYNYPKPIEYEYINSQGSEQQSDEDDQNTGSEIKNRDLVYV
Outline: as §1

Sequence of AKT (P31749 whole entry): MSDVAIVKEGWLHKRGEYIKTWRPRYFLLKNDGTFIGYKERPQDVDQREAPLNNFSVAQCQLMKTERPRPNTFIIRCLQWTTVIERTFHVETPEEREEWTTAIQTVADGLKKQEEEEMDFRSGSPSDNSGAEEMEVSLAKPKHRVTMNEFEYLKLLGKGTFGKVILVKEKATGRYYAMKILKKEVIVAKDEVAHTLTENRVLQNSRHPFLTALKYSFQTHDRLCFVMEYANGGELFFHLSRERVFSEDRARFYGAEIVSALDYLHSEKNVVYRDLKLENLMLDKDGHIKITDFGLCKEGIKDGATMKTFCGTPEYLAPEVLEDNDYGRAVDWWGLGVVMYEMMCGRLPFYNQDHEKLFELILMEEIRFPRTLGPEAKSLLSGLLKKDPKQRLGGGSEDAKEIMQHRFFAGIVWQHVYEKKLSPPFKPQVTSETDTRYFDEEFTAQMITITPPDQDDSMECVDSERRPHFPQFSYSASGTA

SMILES | IC50 [1] [nM] | IC50 [2] [nM] | IC50 [3] [nM]
Cc1cc(-c2ccnc3[nH]cc(C#N)c23)cc(F)c1[C@@]1(O)[C@H](C)CN(C(=O)C(N)C(F)F)C[C@@H]1C (stereo partly drawn) [Compound 2019, 4-(4-((3S,4s,5R)-1-(2-amino-3,3-difluoropropanoyl)-4-hydroxy-3,5-dimethylpiperidin-4-yl)-3-fluoro-5-methylphenyl)-1H-pyrrolo[2,3-b]pyridine-3-carbonitrile] | 7 | 1220 | 7
Cc1cc(-c2ccnc3[nH]cc(C#N)c23)cc(F)c1[C@@]1(O)[C@H](C)CN(C(=O)[C@@H](CO)N(C)C)C[C@@H]1C [Compound 2021, 4-(4-((3S,4S,5R)-1-(dimethyl-D-seryl)-4-hydroxy-3,5-dimethylpiperidin-4-yl)-3-fluoro-5-methylphenyl)-1H-pyrrolo[2,3-b]pyridine-3-carbonitrile] | 3.4 | 223 | 5.1
Cc1cc(-c2ccnc3[nH]cc(C#N)c23)ccc1[C@@]1(O)[C@H](C)CN(C(=O)[C@@H](CO)N(C)C)C[C@@H]1C [Compound 2022, 4-(4-((3S,4S,5R)-1-(dimethyl-D-seryl)-4-hydroxy-3,5-dimethylpiperidin-4-yl)-3-methylphenyl)-1H-pyrrolo[2,3-b]pyridine-3-carbonitrile] | 3 | 251 | 5.3
